Experimental data taken from patent US5047397A, “Linear analogs of atrial natriuretic peptides” (California Biotechnology Inc., priority 1988, dated 1991).
Where a SMILES comes first, the peptide text is derived from it. Bridges are numbered along the chain shown (N, C = ends). Where no end group is shown, it is not given here.

Key:
[1] = tested on: anesthetized rats; assay: Diuresis in anesthetized rats; format: in vivo, rat; settings: for in vivo diuretic/natriuretic activity in rats, in words: dose not stated
Experimental: In one set of examples, cannulae were placed in the left and right ureters and femoral vein of anesthetized rats and urine was collected from the ureters. Analog peptides were administered via the femoral vein. Prior to infusing the analog peptides, saline was infused for 30 minutes, urine was collected for 6 five-minute baseline periods and urine volume was determined gravimetrically. Following these baseline collection periods, various analog peptides were infused for 30 or 60 minutes and urine volume was measured in five-minute periods during infusion and for 60 minutes following infusion (at which time rats were returned to saline). Data was examined by averaging urine flow rates for six five-minute baseline control periods immediately preceding infusion, and comparing values during and after administration of peptides with the "baseline" control values. Responses to peptides are thus evaluated and plotted as the percent of baseline control responses. Specific examples are shown in FIGS. 3A-H. The error bars at the beginning of the graphs represent baseline values +standard deviations. Responses to peptides that are substantially above baseline ±SD can thus be interpreted as being statistically significant increases.

[2] = target: T1, specific ANP receptor sites on BASM or BAE cells (Bos taurus, UniProt P10730); assay: Competitive displacement receptor binding of (125I)-rANP(126-150) on cultured cells; set-up: species or system bovine; settings: for Ki: Table 2A, unit not given, in nM
T1 construct: specific receptor sites on BASM or BAE cells; endogenous in cells; host or cells: cultured BASM and BAE cells
T1 sequence (P10730 42-537): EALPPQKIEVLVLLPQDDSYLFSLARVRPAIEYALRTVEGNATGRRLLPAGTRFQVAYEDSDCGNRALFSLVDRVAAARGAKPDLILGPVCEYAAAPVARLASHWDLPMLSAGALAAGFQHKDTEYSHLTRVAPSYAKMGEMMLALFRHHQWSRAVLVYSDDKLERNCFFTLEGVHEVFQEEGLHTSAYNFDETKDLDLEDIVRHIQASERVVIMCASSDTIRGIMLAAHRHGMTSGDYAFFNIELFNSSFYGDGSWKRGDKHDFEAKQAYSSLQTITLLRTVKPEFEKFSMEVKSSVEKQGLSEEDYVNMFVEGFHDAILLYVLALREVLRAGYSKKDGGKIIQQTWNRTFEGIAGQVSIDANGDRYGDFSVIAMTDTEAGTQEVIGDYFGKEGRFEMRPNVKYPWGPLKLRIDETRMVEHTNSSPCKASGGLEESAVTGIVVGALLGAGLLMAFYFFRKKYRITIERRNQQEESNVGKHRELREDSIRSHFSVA
From the text: Analogous "competitive displacement" receptor binding assays are considered commonplace in the art for examining specific ligand-receptor interactions.
Assuming these ANP analogs act at one or more ANP receptor sites, then increased receptor affinity should reflect increased biological potency.

[3] = tested on: cortical-associated receptor sites of the kidney; assay: Competition for specific (125I)-rANP(123-150) binding in the kidney; set-up: species or system rat; settings: competitor 10^-7 M, tracer 4 × 10^-12 M, n=3; for RATIO OF BOUND/FREE (125I)-rANP(123-150), Whole Kidney: tracer alone 122 ± 46; for RATIO OF BOUND/FREE (125I)-rANP(123-150), Outer Cortex: tracer alone 176 ± 23
[4] = tested on: isolated perfused rat kidney; assay: Natriuresis and diuresis in the isolated perfused rat kidney; settings: for FENa (fractional sodium excretion) / FF (filtration fraction) / GFR (glomerular filtration rate) / RVR (renal vascular resistance) / UNa V (urinary sodium excretion rate) / V (urine flow rate): N=4
From the text: The results are in Table 2C.

[5] = [C] period of section D: AP57 10^-7 M present, before rANP(123-150)
[6] = rANP(123-150) 10^-8 M in presence of AP57 10^-7 M
[7] = rANP(123-150) 10^-8 M, mean ± SE
[8] = rANP(123-150) 10^-9 M in presence of AP57 10^-7 M
[9] = rANP(123-150) 10^-9 M, mean ± SE
[10] = rANP(123-150) 10^-10 M in presence of AP57 10^-7 M
[11] = rANP(123-150) 10^-10 M, mean ± SE
[12] = rANP(123-150) 10^-11 M in presence of AP57 10^-7 M
[13] = rANP(123-150) 10^-11 M, mean ± SE

CC[C@H](C)[C@@H]1NC(=O)[C@H](CCCNC(=N)N)NC(=O)[C@H](CC(=O)O)NC(=O)[C@H]([C@@H](C)CC)NC(=O)[C@H](CCCNC(=N)N)NC(=O)CNC(=O)CNC(=O)[C@H](Cc2ccccc2)NC(=O)[C@@H](N)CSSC[C@@H](C(N)=O)NC(=O)[C@H](C)NC(=O)CNC1=O [AP37, C-F-G-G-R-I-D-R-I-G-A-C-NH2] (H-CFGGRIDRIGAC-NH2; disulfide 1-12)
urine flow rate (urine volume), diuretic response ([1]; infused at 10 mcg/min via femoral vein, versus baseline, FIG. 3): significantly increased
Ki [2]: 13.40
prevention of (125I)-rANP(126-150) binding to BASM cell-associated receptors (FIG. 2) ([2]; increasing concentrations of unlabeled peptide, BASM cells): effectively prevent

CC[C@H](C)[C@@H]1NC(=O)[C@H](CCCNC(=N)N)NC(=O)[C@H](CC(=O)O)NC(=O)[C@H]([C@@H](C)CC)NC(=O)[C@@H](NC(=O)[C@H](CO)NC(=O)[C@H](CO)NC(=O)[C@@H](N)CCCNC(=N)N)CSSC[C@@H](C(=O)N[C@@H](CC(N)=O)C(=O)N[C@@H](CO)C(=O)N[C@@H](Cc2ccccc2)C(=O)N[C@@H](CCCNC(=N)N)C(=O)N[C@@H](Cc2ccc(O)cc2)C(=O)O)NC(=O)CNC(=O)[C@H](CC(C)C)NC(=O)CNC(=O)[C@H](CO)NC(=O)[C@H](CCC(N)=O)NC(=O)[C@H](C)NC(=O)CNC1=O [AP54, R--S--S--C--I--D--R--I--G--A--Q--S--G--L--G--C--N--S--F--R--Y] (H-RSSCIDRIGAQSGLGCNSFRY-OH; disulfide 4-16)
in vivo diuretic/natriuretic activity in rats, in words [1]: appears inactive in vivo
receptor binding / activity as judged by Ki, in words [2]: does not bind to the receptor
Ki(app) ([2]; concentration of unlabeled peptide displacing 50% of maximal binding of 0.5 nM (125I)-rANP(126-150), BASM or BAE cells): > 200 nM

CC[C@H](C)[C@@H]1NC(=O)[C@H](CCCNC(=N)N)NC(=O)[C@H](CC(=O)O)NC(=O)[C@H]([C@@H](C)CC)NC(=O)[C@H](CCCNC(=N)N)NC(=O)CNC(=O)CNC(=O)[C@H](Cc2ccccc2)NC(=O)[C@@H](NC(=O)[C@H](CO)NC(=O)[C@H](CO)NC(=O)[C@@H](N)CCCNC(=N)N)CSSC[C@@H](C(N)=O)NC(=O)[C@H](C)NC(=O)CNC1=O [AP57, R-S-S-C-F-G-G-R-I-D-R-I-G-A-C-NH2] (H-RSSCFGGRIDRIGAC-NH2; disulfide 4-15)
in vivo diuretic/natriuretic activity in rats, in words [1]: natriuretic and diuretic activities
RATIO OF BOUND/FREE (125I)-rANP(123-150), Whole Kidney [3]: 1.27 ± 0.32
RATIO OF BOUND/FREE (125I)-rANP(123-150), Outer Cortex [3]: 1.68 ± 0.44
Ki [2]: 8.2
natriuretic/diuretic activity in the isolated perfused rat kidney, in words ([4]; 10^-7 M): not active
FENa (fractional sodium excretion) ([4]; AP57 10^-7 M alone, mean ± SE): 0.24 ± 0.08%
FF (filtration fraction) ([4]; AP57 10^-7 M alone, mean ± SE): 1.37 ± 0.22%
GFR (glomerular filtration rate) ([4]; AP57 10^-7 M alone, mean ± SE): 0.55 ± 0.07 mL/min
RVR (renal vascular resistance) ([4]; AP57 10^-7 M alone, mean ± SE): 2.27 ± 0.17 mmHg/ml/min
UNa V (urinary sodium excretion rate) ([4]; AP57 10^-7 M alone, mean ± SE): 0.17 ± 0.04 uEq/min
V (urine flow rate) ([4]; AP57 10^-7 M alone, mean ± SE): 13.8 ± 2.0 µL/min
FENa (fractional sodium excretion) [4, 5]: 0.18 ± 0.04%
FF (filtration fraction) [4, 5]: 1.57 ± 0.27%
GFR (glomerular filtration rate) [4, 5]: 0.65 ± 0.06 mL/min
RVR (renal vascular resistance) [4, 5]: 2.21 ± 0.21 mmHg/ml/min
UNa V (urinary sodium excretion rate) [4, 5]: 0.17 ± 0.05 uEq/min
V (urine flow rate) [4, 5]: 16.3 ± 2.0 µL/min
modulation of renal responses to rANP(123-150), in words ([4]; pretreatment of the isolated kidney with 10^-7 M AP57): increased the potency of rANP(123-150)

rANP(123-150): sequence of ANP(126-150) which includes 3 additional upstream amino acids of the naturally occurring peptide (SLRRSSCFGGRIDRIGAQSGLGCNSFRY; not fully specified; ends and bridges not checked; UniProt P01161 123-150, looked up, fragment)
RATIO OF BOUND/FREE (125I)-rANP(123-150), Whole Kidney [3]: 0.63 ± 0.27
RATIO OF BOUND/FREE (125I)-rANP(123-150), Outer Cortex [3]: 0.77 ± 0.30
FENa (fractional sodium excretion) [4, 6]: 4.77 ± 1.22%
FF (filtration fraction) [4, 6]: 2.30 ± 0.47%
GFR (glomerular filtration rate) [4, 6]: 0.84 ± 0.13 mL/min
RVR (renal vascular resistance) [4, 6]: 2.63 ± 0.33 mmHg/ml/min
UNa V (urinary sodium excretion rate) [4, 6]: 6.47 ± 2.29 uEq/min
V (urine flow rate) [4, 6]: 132 ± 33 µL/min
FENa (fractional sodium excretion) [4, 7]: 4.12 ± 0.94%
FF (filtration fraction) [4, 7]: 2.23 ± 0.44%
GFR (glomerular filtration rate) [4, 7]: 0.80 ± 0.08 mL/min
RVR (renal vascular resistance) [4, 7]: 2.66 ± 0.32 mmHg/ml/min
UNa V (urinary sodium excretion rate) [4, 7]: 4.78 ± 1.15 uEq/min
V (urine flow rate) [4, 7]: 96.6 ± 24.0 µL/min
FENa (fractional sodium excretion) [4, 8]: 4.08 ± 0.72%
FF (filtration fraction) [4, 8]: 2.81 ± 0.40%
GFR (glomerular filtration rate) [4, 8]: 0.99 ± 0.07 mL/min
RVR (renal vascular resistance) [4, 8]: 2.79 ± 0.34 mmHg/ml/min
UNa V (urinary sodium excretion rate) [4, 8]: 6.03 ± 1.37 uEq/min
V (urine flow rate) [4, 8]: 139 ± 14 µL/min
FENa (fractional sodium excretion) [4, 9]: 2.78 ± 0.89%
FF (filtration fraction) [4, 9]: 2.30 ± 0.41%
GFR (glomerular filtration rate) [4, 9]: 0.82 ± 0.07 mL/min
RVR (renal vascular resistance) [4, 9]: 2.64 ± 0.35 mmHg/ml/min
UNa V (urinary sodium excretion rate) [4, 9]: 3.22 ± 0.92 uEq/min
V (urine flow rate) [4, 9]: 74.0 ± 14.8 µL/min
FENa (fractional sodium excretion) [4, 10]: 1.33 ± 0.20%
FF (filtration fraction) [4, 10]: 2.65 ± 0.20%
GFR (glomerular filtration rate) [4, 10]: 0.93 ± 0.04 mL/min
RVR (renal vascular resistance) [4, 10]: 2.80 ± 0.31 mmHg/ml/min
UNa V (urinary sodium excretion rate) [4, 10]: 1.76 ± 0.25 uEq/min
V (urine flow rate) [4, 10]: 70.6 ± 4.2 µL/min
FENa (fractional sodium excretion) [4, 11]: 1.21 ± 0.44%
FF (filtration fraction) [4, 11]: 1.76 ± 0.29%
GFR (glomerular filtration rate) [4, 11]: 0.66 ± 0.07 mL/min
RVR (renal vascular resistance) [4, 11]: 2.51 ± 0.26 mmHg/ml/min
UNa V (urinary sodium excretion rate) [4, 11]: 1.13 ± 0.43 uEq/min
V (urine flow rate) [4, 11]: 35.5 ± 5.7 µL/min
FENa (fractional sodium excretion) [4, 12]: 0.41 ± 0.11%
FF (filtration fraction) [4, 12]: 2.04 ± 0.15%
GFR (glomerular filtration rate) [4, 12]: 0.80 ± 0.08 mL/min
RVR (renal vascular resistance) [4, 12]: 2.50 ± 0.15 mmHg/ml/min
UNa V (urinary sodium excretion rate) [4, 12]: 0.45 ± 0.10 uEq/min
V (urine flow rate) [4, 12]: 31.0 ± 3.7 µL/min
FENa (fractional sodium excretion) [4, 13]: 0.72 ± 0.19%
FF (filtration fraction) [4, 13]: 1.33 ± 0.20%
GFR (glomerular filtration rate) [4, 13]: 0.53 ± 0.04 mL/min
RVR (renal vascular resistance) [4, 13]: 2.36 ± 0.20 mmHg/ml/min
UNa V (urinary sodium excretion rate) [4, 13]: 0.53 ± 0.14 uEq/min
V (urine flow rate) [4, 13]: 21.8 ± 1.7 µL/min
